Experimental data as given in patent US12329733B2, “Acetyl-leucine or a pharmaceutically acceptable salt thereof for improved mobility and cognitive function” (INTRABIO LTD., priority 2016, dated 2025).
“Also recorded” adds a separate entry of the source.

What was measured:
[1] = tested on: subjects / patients; assay: adverse effects / tolerability; format: in vivo, human; conditions: for tolerability: 3 g/day one week then 5 g/day; for Adverse Effects: 5 g/day
[2] = tested on: subjects with no apparent dysfunction in cognitive ability or movement/balance; assay: Psychomotor Vigilance Task (Mind Metrics App, 10 trials per test); format: in vivo, human; conditions: for Statistically significant improvement in PVT performance on treatment?: 5 g/day; for % change in Reaction Time: on-treatment vs baseline
Excerpt: For example, the Psychomotor Vigilance Task (PVT) is a sustained-attention, reaction-timed task that measures the speed with which subjects respond to a visual stimulus. The subject monitors a screen and presses the screen as quickly as possible upon the appearance of visual stimuli. The visual stimuli will then disappear and reappear (at irregular time intervals) e.g., 10 times over the course of the test, with the subject touching the screen as quickly as possible upon each reappearance. Test performance is quantified from an average of the e.g. 10 reaction times. The subject's reaction speed and alertness was assessed using the Mind Metrics App (Psychomotor Vigilance Task, 10 trials per test). The Psychomotor Vigilance Task (PVT) is a sustained-attention, reaction-timed task that measures the speed with which subjects respond to a visual stimulus. The subject is required to monitor a screen and press the screen as quickly as possible upon the appearance of visual stimuli. The visual stimuli will then disappear and reappear (at irregular time intervals) 10 times over the course of the test, with the subject touching the screen as quickly as possible upon each reappearance. Test performance is quantified from an average of the 10 reaction times. […] The subject was assessed for 2 weeks prior to taking acetyl-leucine, which constitutes the baseline period.

[3] = tested on: cerebellar patients; conditions: cited from earlier work
[4] = tested on: patient with postural imbalance; assay: timed 8-meter-walking test; format: in vivo, human; conditions: Example 6: 5 g/day for 1 month; baseline 6.5 sec
Excerpt: Baseline (prior to commencement of treatment): Maximal distance to walk until the patient could not walk anymore because of fatigue was 1 km. The […] up-and-go test yielded 25.4 sec. SARA yielded 6.5/40. […] Tandem stance and gait was not possible to perform due to an increased fall risk. Mean timed 8-meter-walking test was 6.5 sec.

[5] = tested on: patient with postural imbalance; assay: timed Up and Go test (stance up-and-go test); format: in vivo, human; conditions: Example 6: 5 g/day for 1 month; baseline 25.4 sec
Excerpt: The patient was examined clinically by means of the following clinical assessments: maximal distance to walk; timed Up and Go test; Scale for the Assessment and Rating of Ataxia (SARA).

[6] = tested on: vertigo; conditions: clinical results reported by various authors; cited from earlier work
[7] = tested on: patients with Niemann-Pick type C; conditions: 12 patients, ref (7); cited from earlier work

Compound: CC(=O)NC(CC(C)C)C(=O)O (racemic) [acetyl-DL-leucine]
- side effects ([1]; Example 1: person, 4.5 g per day, over eighteen months): no side effects
- tolerability ([1]; Example 3: person): well tolerated
- tolerability ([1]; Example 4: person): very well tolerated
- side effects ([1]; Example 6: 2 g/1.5 g/1.5 g per day dosage regimen): Sleepiness
- side effects after dose reduction ([1]; Example 6: reduced to 1 g/1 g/1 g daily after 1 month, listed as Tanganil®): cease in these side-effect symptoms; also recorded: have not returned
- Adverse Effects ([1]; Example 7: 66 M, first week on medication): mild dizziness/lightheadedness on one occasion
- Adverse Effects ([1]; Example 8: 29 M, 4 weeks): None reported
- Adverse Effects ([1]; Example 9: 55 F, 4 weeks): None reported
- Adverse Effects ([1]; Example 10: 50 M, 2 weeks): None reported
- Adverse Effects ([1]; Example 11: 53 M, 4 weeks): None reported
- Adverse Effects ([1]; Example 12: 48 F, 4 weeks): None reported
- Statistically significant improvement in PVT performance on treatment? ([2]; Example 7: 66 M, p<0.0001): significant improvement in Psychomotor Vigilance Task performance
- Statistically significant improvement in PVT performance on treatment? ([2]; Example 7: 66 M, p<0.0001, listed as acetyl-leucine): Yes
- % change in Reaction Time ([2]; Example 7: 66 M): −30.86%
- Statistically significant improvement in PVT performance on treatment? ([2]; Example 8: 29 M, p<0.05): small but statistically significant improvement
- Statistically significant improvement in PVT performance on treatment? ([2]; Example 8: 29 M, p<0.05, listed as acetyl-leucine): Yes
- % change in Reaction Time ([2]; Example 8: 29 M): −3.593%
- Statistically significant improvement in PVT performance on treatment? ([2]; Example 9: 55 F): not associated with significant changes
- Statistically significant improvement in PVT performance on treatment? ([2]; Example 9: 55 F, listed as acetyl-leucine): No
- % change in Reaction Time ([2]; Example 9: 55 F): 1.408%
- Statistically significant improvement in PVT performance on treatment? ([2]; Example 10: […]): small, non-statistically significant decline
- Statistically significant improvement in PVT performance on treatment? ([2]; Example 10: […], listed as acetyl-leucine): No
- % change in Reaction Time ([2]; Example 10: […]): 8.13%
- Statistically significant improvement in PVT performance on treatment? ([2]; Example 11: 53 M, p<0.01): statistically significant improvements
- Statistically significant improvement in PVT performance on treatment? ([2]; Example 11: 53 M, p<0.01, listed as acetyl-leucine): Yes
- % change in Reaction Time ([2]; Example 11: 53 M): −10.24%
- Statistically significant improvement in PVT performance on treatment? ([2]; Example 12: 48 F, p<0.001): statistically significant improvements
- Statistically significant improvement in PVT performance on treatment? ([2]; Example 12: 48 F, p<0.001, listed as acetyl-leucine): Yes
- % change in Reaction Time ([2]; Example 12: 48 F): −7.474%
- cerebellar symptoms ([3]; case series, ref (5)): Improvement of cerebellar symptoms
- benefit in another case series ([3]; ref (6)): did not find benefit
- Mean timed 8-meter-walking test [4]: 4.4 s
- stance up-and-go test [5]: 21.2 s
- cases with improvement in vertigo symptomology [6]: more than 95%
- ataxic symptoms [7]: improvement in ataxic symptoms
